Reference: patent US10221177B2 (HYDRA BIOSCIENCES, INC., priority 2014, dated 2019)
Several values for one entry are separate records, joined by “and”; a condition that tells them apart may be missing. Equal entries are not always repeated.

Legend:
[1] = tested on: formalin-induced pain behaviors in the rat; assay: Formalin-induced pain test (formalin model), duration of pain behaviors; type: in vivo
How it was run: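 Rats dosed orally with vehicle or compound (solutions with DMSO, Solutol, Labrasol, Tween-80, Cremophor EL, or methylcellulose suspensions) one hour before intraplantar injection of 50 μL 3% formalin into hind paw. Duration of pain behaviors counted by blinded observer; Phase I covers 0-5 min; comparison to vehicle.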

[2] = target: human TRPA1 (Homo sapiens (Human), UniProt O75762); assay: In vitro inhibition of human TRPA1, whole cell patch configuration; type: cell-based; settings: current activation 10 μM AITC, tested concentrations 320 pM to 3.2 μM, read-out: hTRPA1 IC50
How it was run: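 Compound antagonism measured from voltage ramps (±100 or ±80 mV, 400 ms, every 4 s from −40 mV), analysed at −80 and 80 mV, or at constant −60 mV. HEPES-buffered NaCl bath, pH 7.4, EGTA or 2 mM Ca2+; temperature set by perfusion, within ±2° C; no junction-potential correction.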

[3] = tested on: CFA-induced cold hypersensitivity of the hind paw; assay: CFA-induced pain test, cold hypersensitivity (cold plate paw withdrawal latency); type: in vivo; settings: cold plate 1° C., solution in 4% DMSO, 5% Tween-80; for Average PWL Post-Treatment / PWL Change: 1-2 hour pre-treatment; for Average PWL Post-CFA: baseline before dosing
Experimental: Embodiments of the invention may be efficacious in the treatment of inflammatory pain. Compounds of the invention were tested by the CFA-induced pain test method. Compounds were formulated as solutions in water with various solvents and excipients including dimethyl sulfoxide (DMSO), polyethylene glycol (15)-hydroxystearate (Solutol®, Sigma-Aldrich), caprylocaproyl macrogol-8 glyceride (Labrasol®, Sigma-Aldrich), polysorbate-80 (Tween®-80, Sigma-Aldrich), and polyoxyl 35 castor oil (Cremophor® EL, BASF Corp.); or suspensions in methylcellulose as indicated in Table 3 for oral delivery. Briefly, the hind paw was sensitized to cold temperature (allodynic) by administering 0.1 mL of Complete Freund's Adjuvant (CFA) to the right hind paw. Three days later, the time taken for the animal to lift its CFA-injected paw was recorded compared to its un-injected normal left hind paw. […] To avoid tissue damage the maximum cut-off time was 5 minutes. Animals that were allodynic (average PWL to the first three pain behaviors <150 seconds for the CFA-injected hind paw: ˜≥50% difference between the normal and CFA-injected paw) were included in the study and subsequently randomized across treatment groups. The following day, the animals were dosed orally under blinded conditions. Following the 1-2 hour pre-treatment time, the post-dose PWL readings were again taken. The efficacy of the drug treatment was assessed by comparing the PWL in the drug treatment animals to those animals that receive the vehicle. P values, when indicated, indicate significance compared Vehicle.

[4] = 1 mg/kg PO one hour prior to formalin, solution in 4% DMSO, 5% Tween-80, 25% Cremophor EL, 66% water
[5] = 1 mg/kg PO one hour prior to formalin, solution in 8% DMSO and 92% Labrasol
[6] = 3 mg/kg PO one hour prior to formalin, solution in 4% DMSO, 5% Tween-80, 25% Cremophor EL, 66% water
[7] = 3 mg/kg PO one hour prior to formalin, solution in 8% DMSO and 92% Labrasol
[8] = 10 mg/kg PO one hour prior to formalin, solution in 4% DMSO, 5% Tween-80, 25% Cremophor EL, 66% water
[9] = 10 mg/kg PO one hour prior to formalin, solution in 8% DMSO and 92% Labrasol
[10] = 30 mg/kg PO one hour prior to formalin, solution in 8% DMSO and 92% Labrasol
[11] = 1 mg/kg PO, 25% Cremophor EL, and 66% water
[12] = 3 mg/kg PO, 25% Cremophor EL, and 66% water
[13] = 10 mg/kg PO, 25% Cremophor EL, and 66% water
[14] = 1 mg/kg PO one hour prior to formalin, solution in 4% DMSO, 5% Tween-80, 20% Cremophor EL, 71% water
[15] = 3 mg/kg PO one hour prior to formalin, solution in 4% DMSO, 5% Tween-80, 20% Cremophor EL, 71% water
[16] = 10 mg/kg PO one hour prior to formalin, solution in 4% DMSO, 5% Tween-80, 20% Cremophor EL, 71% water
[17] = 0.3 mg/kg PO, 20% Cremophor EL, and 71% water
[18] = 1 mg/kg PO, 20% Cremophor EL, and 71% water
[19] = 3 mg/kg PO, 20% Cremophor EL, and 71% water

Sequence of human TRPA1 (O75762 whole entry, the tested form may be a part): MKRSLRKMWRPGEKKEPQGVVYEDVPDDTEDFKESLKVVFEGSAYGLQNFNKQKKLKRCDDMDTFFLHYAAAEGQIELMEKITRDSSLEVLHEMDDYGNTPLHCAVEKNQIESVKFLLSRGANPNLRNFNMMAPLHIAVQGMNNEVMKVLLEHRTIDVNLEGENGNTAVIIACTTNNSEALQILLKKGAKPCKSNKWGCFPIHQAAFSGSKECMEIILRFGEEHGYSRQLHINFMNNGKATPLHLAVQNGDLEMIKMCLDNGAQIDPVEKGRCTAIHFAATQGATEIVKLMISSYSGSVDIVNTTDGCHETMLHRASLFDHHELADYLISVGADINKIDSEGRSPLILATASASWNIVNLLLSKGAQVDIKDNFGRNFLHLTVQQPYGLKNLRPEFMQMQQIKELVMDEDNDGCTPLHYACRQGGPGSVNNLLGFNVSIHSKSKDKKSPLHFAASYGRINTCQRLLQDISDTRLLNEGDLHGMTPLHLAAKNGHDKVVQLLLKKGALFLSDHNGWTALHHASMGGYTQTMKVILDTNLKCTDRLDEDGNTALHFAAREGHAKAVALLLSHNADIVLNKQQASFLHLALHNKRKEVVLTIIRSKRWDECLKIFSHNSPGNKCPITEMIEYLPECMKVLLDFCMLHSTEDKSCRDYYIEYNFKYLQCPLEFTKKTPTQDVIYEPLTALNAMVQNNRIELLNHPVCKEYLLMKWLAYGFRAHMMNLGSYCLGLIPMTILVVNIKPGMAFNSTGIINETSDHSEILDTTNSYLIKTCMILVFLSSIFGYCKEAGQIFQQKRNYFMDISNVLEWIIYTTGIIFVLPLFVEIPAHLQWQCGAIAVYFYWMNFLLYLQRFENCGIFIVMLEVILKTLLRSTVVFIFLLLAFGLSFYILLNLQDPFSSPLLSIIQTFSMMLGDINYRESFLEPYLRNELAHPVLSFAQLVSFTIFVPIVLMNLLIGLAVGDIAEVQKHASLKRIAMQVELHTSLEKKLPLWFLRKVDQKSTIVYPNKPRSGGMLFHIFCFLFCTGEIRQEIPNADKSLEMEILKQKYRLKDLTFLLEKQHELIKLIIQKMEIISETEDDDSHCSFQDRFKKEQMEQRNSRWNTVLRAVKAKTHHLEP

## CC(=O)Cn1c(=O)c2c(ncn2[C@@H](C)C(=O)Nc2csc(-c3cnc(N4CC5CC5C4)nc3)n2)n(C)c1=O (stereo partly drawn) [Compound 153, (2S)—N-(2-(2-(3-azabicyclo[3.1.0]hexan-3-yl)pyrimidin-5-yl)thiazol-4-yl)-2-(3-methyl-2,6-dioxo-1-(2-oxopropyl)-2,3-dihydro-1H-purin-7(6H)-yl)propanamide]
[1]; [4]
  Duration (0-2 Minutes) Average: 71.4 s
  Duration (0-5 Minutes) Average: 164.6 s
[1]; [5]
  Duration (0-2 Minutes) Average: 84.5 s
  Duration (0-5 Minutes) Average: 172.5 s
[1]; [6]
  Duration (0-2 Minutes) Average: 81.5 s
  Duration (0-5 Minutes) Average: 216.9 s
[1]; [7]
  Duration (0-2 Minutes) Average: 86.4 s
  Duration (0-5 Minutes) Average: 198.8 s
[1]; [8]
  Duration (0-2 Minutes) Average: 50.1 s
  Duration (0-5 Minutes) Average: 160.3 s
[1]; [9]
  Duration (0-2 Minutes) Average: 87.9 s
  Duration (0-5 Minutes) Average: 214.6 s
[1]; [10]
  Duration (0-2 Minutes) Average: 31.9 s and 52.8 s
  Duration (0-5 Minutes) Average: 173.1 s and 173.4 s
[2]
  IC50: 2 nM
[3]; [11]
  Average PWL Post-Treatment: 178.1
  PWL Change: 85.6 s
[3]; [12]
  Average PWL Post-Treatment: 223.6
  PWL Change: 130.8 s
[3]; [13]
  Average PWL Post-Treatment: 247.1
  PWL Change: 154.3 s
[3]; group 1 mg/kg PO, 25% Cremophor EL, and 66% water
  Average PWL Post-CFA: 92.5
[3]; group 3 mg/kg PO, 25% Cremophor EL, and 66% water
  Average PWL Post-CFA: 92.8
[3]; group 10 mg/kg PO, 25% Cremophor EL, and 66% water
  Average PWL Post-CFA: 92.7

## Cc1noc(Cn2c(=O)c3c(ncn3[C@@H](C)C(=O)Nc3cncc(-c4cnc(C(F)(F)F)nc4)n3)n(C)c2=O)n1 [Compound 160, (S)-2-(3-methyl-1-((3-methyl-1,2,4-oxadiazol-5-yl)methyl)-2,6-dioxo-2,3-dihydro-1H-purin-7(6H)-yl)-N-(6-(2-(trifluoromethyl)pyrimidin-5-yl)pyrazin-2-yl)propanamide]
[1]; [14]
  Duration (0-2 Minutes) Average: 68.6 s
  Duration (0-5 Minutes) Average: 167.3 s
[1]; [15]
  Duration (0-2 Minutes) Average: 78.1 s
  Duration (0-5 Minutes) Average: 232.0 s
[1]; [16]
  Duration (0-2 Minutes) Average: 42.5 s
  Duration (0-5 Minutes) Average: 150.4 s
[2]
  IC50: 20 nM
[3]; [17]
  Average PWL Post-Treatment: 173.0
  PWL Change: 64.7 s
[3]; [18]
  Average PWL Post-Treatment: 269.6
  PWL Change: 161.5 s
[3]; [19]
  Average PWL Post-Treatment: 253.6
  PWL Change: 146.2 s
[3]; group 0.3 mg/kg PO, 20% Cremophor EL, and 71% water
  Average PWL Post-CFA: 108.2
[3]; group 1 mg/kg PO, 20% Cremophor EL, and 71% water
  Average PWL Post-CFA: 108.1
[3]; group 3 mg/kg PO, 20% Cremophor EL, and 71% water
  Average PWL Post-CFA: 107.5
